SMILES strings stand for the structures. Some results are limits rather than exact numbers.

The target in this assay is T1, human M4 receptor (Homo sapiens, UniProt P08173).
T1 construct: expressed in transfected cells; host or cells: CHO cells
T1 sequence (P08173 1-479): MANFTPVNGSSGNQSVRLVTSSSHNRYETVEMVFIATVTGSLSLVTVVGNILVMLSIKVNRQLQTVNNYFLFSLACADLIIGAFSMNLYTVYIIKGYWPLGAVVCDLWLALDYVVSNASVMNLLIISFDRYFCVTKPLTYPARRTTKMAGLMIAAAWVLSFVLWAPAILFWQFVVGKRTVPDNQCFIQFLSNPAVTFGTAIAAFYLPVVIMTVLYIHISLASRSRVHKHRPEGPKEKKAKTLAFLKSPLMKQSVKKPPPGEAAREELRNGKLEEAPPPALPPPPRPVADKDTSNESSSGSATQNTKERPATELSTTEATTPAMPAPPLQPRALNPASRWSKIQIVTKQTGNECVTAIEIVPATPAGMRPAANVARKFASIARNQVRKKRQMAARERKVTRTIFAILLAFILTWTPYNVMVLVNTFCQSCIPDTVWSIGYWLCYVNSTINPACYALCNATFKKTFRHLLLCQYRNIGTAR
The experiment in a line: Radioligand ([3H]N-methylscopolamine) binding assay, membranes from CHO cells expressing human M4 receptor. Particulars: Ki against human M4 receptor; membranes from CHO cells; tritiated N-methylscopolamine 1.5 nM; read-out: K. The gist of the method:
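Ki values derive from displacement of tritiated N-methylscopolamine (1.5 nM) from human M4 receptor in CHO membranes. Membranes, radioligand and twelve-point compound series were incubated together at 37 °C for 90 minutes in pH 7.4 HEPES/NaCl/MgCl2/EDTA buffer. Rapid vacuum filtration over polyethylenimine-pretreated filters was followed by radioactivity counting.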
In the case of `C[C@@H]1CN(c2ncc(C(F)(F)F)cn2)CCN1C(=O)OC1(C(F)F)CC2(CN(Cc3ccccc3)C2)C1` [Compound 349, 2-benzyl-6-(difluoromethyl)-2-azaspiro[3.3]heptan-6-yl (2R)-2-methyl-4-[5-(trifluoromethyl)pyrimidin-2-yl]piperazine-1-carboxylate], the Ki lay in the range of 10 to 100 nM.
With `C[C@@H]1CN(c2ncc(C(F)(F)F)cn2)C[C@H](C)N1C(=O)OC1(C)CC2(CN(Cc3ccccc3)C2)C1` [Compound 352, 2-benzyl-6-methyl-2-azaspiro[3.3]heptan-6-yl (2R,6S)-2,6-dimethyl-4-[5-(trifluoromethyl)pyrimidin-2-yl]piperazine-1-carboxylate] the figure was 100 to 1000 nM; with `C[C@@H]1CN(c2cnc(C(F)(F)F)cn2)C[C@H](C)N1C(=O)OC1(C)CC2(CN(Cc3ccccc3)C2)C1` [Compound 353, 2-benzyl-6-methyl-2-azaspiro[3.3]heptan-6-yl (2R,6S)-2,6-dimethyl-4-[5-(trifluoromethyl)pyrazin-2-yl]piperazine-1-carboxylate], 10 to 100 nM.
Take `C[C@@H]1CN(c2ncc(C(F)(F)F)cn2)C[C@@H](C)N1C(=O)OC1(C)CC2(CN(Cc3ccccc3)C2)C1` [Compound 355, 2-benzyl-6-methyl-2-azaspiro[3.3]heptan-6-yl (2R,6R)-2,6-dimethyl-4-[5-(trifluoromethyl)pyrimidin-2-yl]piperazine-1-carboxylate]: the Ki lay in the range of 10 to 100 nM.
As for `C[C@@H]1CN(c2cnc(C(F)(F)F)cn2)C[C@@H](C)N1C(=O)OC1(C)CC2(CN(Cc3ccccc3)C2)C1` [Compound 356, 2-benzyl-6-methyl-2-azaspiro[3.3]heptan-6-yl (2R,6R)-2,6-dimethyl-4-[5-(trifluoromethyl)pyrazin-2-yl]piperazine-1-carboxylate], the Ki was in the range of 10 to 100 nM.
The figure for `C[C@@H]1CN(c2ncc(C(F)(F)F)cn2)[C@@H](C)CN1C(=O)OC1(C)CC2(CN(Cc3ccccc3)C2)C1` [Compound 358, 2-benzyl-6-methyl-2-azaspiro[3.3]heptan-6-yl (2R,5S)-2,5-dimethyl-4-[5-(trifluoromethyl)pyrimidin-2-yl]piperazine-1-carboxylate] is less than 10 nM; for `[2H]c1c([2H])c([2H])c(C([2H])([2H])N2CC3(CC(OC(=O)N4C[C@H](C)N(c5cnc(C(F)(F)F)cn5)C[C@H]4C)C3)C2)c([2H])c1[2H]` [Compound 361, 2-[(^2H5)phenyl(^2H2)methyl]-2-azaspiro[3.3]heptan-6-yl (2R,5S)-2,5-dimethyl-4-[5-(trifluoromethyl)pyrazin-2-yl]piperazine-1-carboxylate] it is 10 to 100 nM.
As to `C[C@@H]1CN(c2cnc3cc(F)ccc3n2)[C@@H](C)CN1C(=O)OC1CC2(C1)CN(Cc1ccccc1)C2` [Compound 363, 2-benzyl-2-azaspiro[3.3]heptan-6-yl (2R,5S)-4-(6-fluoroquinoxalin-2-yl)-2,5-dimethylpiperazine-1-carboxylate], the Ki was 10 to 100 nM.
With `C[C@@H]1CN(c2nc3ccc(C(F)(F)F)cc3s2)C[C@H](C)N1C(=O)OC1CC2(C1)CN(Cc1ccccc1)C2` [Compound 364, 2-benzyl-2-azaspiro[3.3]heptan-6-yl (2R,6S)-2,6-dimethyl-4-[6-(trifluoromethyl)-1,3-benzothiazol-2-yl]piperazine-1-carboxylate] the figure was less than 10 nM.
With `C[C@@H]1CN(c2nc3cc(C(F)(F)F)cnc3s2)C[C@H](C)N1C(=O)OC1CC2(C1)CN(Cc1ccccc1)C2` [Compound 365, 2-benzyl-2-azaspiro[3.3]heptan-6-yl (2R,6S)-2,6-dimethyl-4-[6-(trifluoromethyl)-[1,3]thiazolo[5,4-b]pyridin-2-yl]piperazine-1-carboxylate] the figure was less than 10 nM; with `C[C@@H]1CN(c2nc3cc(C(F)(F)F)cnc3s2)C[C@@H](C)N1C(=O)OC1CC2(C1)CN(Cc1ccccc1)C2` [Compound 366, 2-benzyl-2-azaspiro[3.3]heptan-6-yl (2R,6R)-2,6-dimethyl-4-[6-(trifluoromethyl)-[1,3]thiazolo[5,4-b]pyridin-2-yl]piperazine-1-carboxylate], 10 to 100 nM.
As for `C[C@@H]1CN(c2nc3cc(C(F)(F)F)cnc3s2)[C@@H](C)CN1C(=O)OC1CC2(C1)CN(Cc1ccccc1)C2` [Compound 367, 2-benzyl-2-azaspiro[3.3]heptan-6-yl (2R,5S)-2,5-dimethyl-4-[6-(trifluoromethyl)-[1,3]thiazolo[4,3-b]pyridin-2-yl]piperazine-1-carboxylate], the Ki was less than 10 nM.
For `C[C@@H]1CN(c2nc3ccc(F)cc3s2)C[C@H](C)N1C(=O)OC1CC2(C1)CN(Cc1ccccc1)C2` [Compound 368, 2-benzyl-2-azaspiro[3.3]heptan-6-yl (2R,6S)-4-(6-fluoro-1,3-benzothiazol-2-yl)-2,6-dimethylpiperazine-1-carboxylate], the Ki is less than 10 nM.
With `C[C@@H]1CN(c2nc3ccc(F)cc3s2)C[C@@H](C)N1C(=O)OC1CC2(C1)CN(Cc1ccccc1)C2` [Compound 369, 2-benzy-2-azaspiro[3.3]heptan-6-yl (2R,6R)-4-(6-fluoro-1,3-benzothiazol-2-yl)-2,6-dimethylpiperazine-1-carboxylate] the figure was 10 to 100 nM; with `C[C@@H]1CN(c2nc3ccc(F)cc3s2)[C@@H](C)CN1C(=O)OC1CC2(C1)CN(Cc1ccccc1)C2` [Compound 370, 2-benzyl-2-azaspiro[3.3]heptan-6-yl (2R,5S)-4-(6-fluoro-1,3-benzothiazol-2-yl)-2,5-dimethylpiperazine-1-carboxylate], less than 10 nM; with `C[C@@H]1CN(c2nc3ccc(C(F)(F)F)cc3s2)[C@@H](C)CN1C(=O)OC1CC2(C1)CN(Cc1ccccc1)C2` [Compound 372, 2-benzyl-2-azaspiro[3.3]heptan-6-yl (2R,5S)-2,5-dimethyl-4-[6-(trifluoromethyl)-1,3-benzothiazol-2-yl]piperazine-1-carboxylate], less than 10 nM.
With `C[C@@H]1CN(c2ncc3ccccc3n2)C[C@H](C)N1C(=O)OC1CC2(C1)CN(Cc1ccccc1)C2` [Compound 377, 2-benzyl-2-azaspiro[3.3]heptan-6-yl (2R,6S)-2,6-dimethyl-4-(quinazolin-2-yl)piperazine-1-carboxylate] the figure was 100 to 1000 nM; with `C[C@@H]1CN(c2cnc3cc(C(F)(F)F)ccc3n2)C[C@H](C)N1C(=O)OC1CC2(C1)CN(Cc1ccccc1)C2` [Compound 378, 2-benzyl-2-azaspiro[3.3]heptan-6-yl (2R,6S)-2,6-dimethyl-4-[6-(trifluoromethyl)quinoxalin-2-yl]piperazine-1-carboxylate], less than 10 nM.
In the case of `COc1ccc2nc(N3C[C@@H](C)N(C(=O)OC4CC5(C4)CN(Cc4ccccc4)C5)[C@@H](C)C3)cnc2c1` [Compound 379, 2-benzyl-2-azaspiro[3.3]heptan-6-yl (2R,6S)-4-(6-methoxyquinoxalin-2-yl)-2,6-dimethylpiperazine-1-carboxylate], the Ki is 10 to 100 nM.
The figure for `C[C@@H]1CN(c2cnc3cc(C(F)(F)F)ccc3n2)[C@@H](C)CN1C(=O)OC1CC2(C1)CN(Cc1ccccc1)C2` [Compound 380, 2-benzyl-2-azaspiro[3.3]heptan-6-yl (2R,5S)-2,5-dimethyl-4-[6-(trifluoromethyl)quinoxalin-2-yl]piperazine-1-carboxylate] is less than 10 nM; for `C[C@@H]1CN(c2nc3ccc(F)cc3s2)C[C@H](C)N1C(=O)OC1CC2(C1)CN(Cc1ccc(F)cc1)C2` [Compound 381, 2-[(4-fluorophenyl)methyl]-2-azaspiro[3.3]heptan-6-yl (2R,6S)-4-(6-fluoro-1,3-benzothiazol-2-yl)-2,6-dimethylpiperazine-1-carboxylate] it is less than 10 nM; for `C[C@@H]1CN(c2nc3ccc(F)cc3s2)[C@@H](C)CN1C(=O)OC1CC2(C1)CN(Cc1ccc(F)cc1)C2` [Compound 383, 2-[(4-fluorophenyl)methyl]-2-azaspiro[3.3]heptan-6-yl (2R,5S)-4-(6-fluoro-1,3-benzothiazol-2-yl)-2,5-dimethylpiperazine-1-carboxylate] it is less than 10 nM.
In the case of `C[C@@H]1CN(c2nc3ccc(C(F)(F)F)cc3s2)C[C@H](C)N1C(=O)OC1CC2(C1)CN(Cc1ccc(F)cc1)C2` [Compound 384, 2-[(4-fluorophenyl)methyl]-2-azaspiro[3.3]heptan-6-yl (2R,6S)-2,6-dimethyl-4-[6-(trifluoromethyl)-1,3-benzothiazol-2-yl]piperazine-1-carboxylate], the Ki is less than 10 nM.
As to `C[C@@H]1CN(c2nc3ccc(C(F)(F)F)cc3s2)C[C@@H](C)N1C(=O)OC1CC2(C1)CN(Cc1ccc(F)cc1)C2` [Compound 385, 2-[(4-fluorophenyl)methyl]-2-azaspiro[3.3]heptan-6-yl (2R,6R)-2,6-dimethyl-4-[6-(trifluoromethyl)-1,3-benzothiazol-2-yl]piperazine-1-carboxylate], the Ki fell in the range of 10 to 100 nM.
For `C[C@@H]1CN(c2nc3ccc(C(F)(F)F)cc3s2)[C@@H](C)CN1C(=O)OC1CC2(C1)CN(Cc1ccc(F)cc1)C2` [Compound 386, 2-[(4-fluorophenyl)methyl]-2-azaspiro[3.3]heptan-6-yl (2R,5S)-2,5-dimethyl-4-[6-(trifluoromethyl)-1,3-benzothiazol-2-yl]piperazine-1-carboxylate], the Ki is less than 10 nM.

The record behind these values is patent US20230129359A1, “MUSCARINIC RECEPTOR 4 ANTAGONISTS AND METHODS OF USE” (Neurocrine Biosciences, Inc., priority 2020, published 2023).
